Assay results taken from article PMC7252619 (PLoS ONE, 2020).
Blank lines part the entries; values can stand above or below the compound they belong to.

Experiments:
[1] = molecular target: T1, DAPK1 (Homo sapiens, UniProt P53355); assay: Kinase activity test (ReactionBiology), % enzyme activity relative to DMSO; format: biochemical; settings: DAPK1; for % Enzyme Activity (relative to DMSO controls), Data 1: replicate Data 1; for % Enzyme Activity (relative to DMSO controls), Data 2: replicate Data 2
T1 construct: purchased ReactionBiology

[2] = molecular target: T2, CK1d (Homo sapiens, UniProt P48730); assay: as above; format: biochemical; settings: CK1d; 1 uM; Average
T2 construct: purchased ReactionBiology

[3] = molecular target: T3, CDC7 (Homo sapiens, UniProt O00311); assay: as above; format: biochemical; settings: CDC7; for % Enzyme Activity (relative to DMSO controls), Data 1: replicate Data 1; for % Enzyme Activity (relative to DMSO controls), Data 2: replicate Data 2;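 as to all read-outs here: each drug screened at both 10 µM and 1 µM across a ten-kinase panel, activity expressed as percent of DMSO control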
T3 construct: purchased ReactionBiology

[4] = molecular target: T4, EPHB4 (Homo sapiens, UniProt P54760); assay: as above; format: biochemical; settings: EPHB4; for % Enzyme Activity (relative to DMSO controls), Data 1: replicate Data 1; for % Enzyme Activity (relative to DMSO controls), Data 2: replicate Data 2;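 as to all read-outs here: EPHB4 was one of ten selected kinases in the screening panel, with enzyme activity expressed as a percentage of DMSO controls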
T4 construct: purchased ReactionBiology
T4 sequence (P54760 16-987): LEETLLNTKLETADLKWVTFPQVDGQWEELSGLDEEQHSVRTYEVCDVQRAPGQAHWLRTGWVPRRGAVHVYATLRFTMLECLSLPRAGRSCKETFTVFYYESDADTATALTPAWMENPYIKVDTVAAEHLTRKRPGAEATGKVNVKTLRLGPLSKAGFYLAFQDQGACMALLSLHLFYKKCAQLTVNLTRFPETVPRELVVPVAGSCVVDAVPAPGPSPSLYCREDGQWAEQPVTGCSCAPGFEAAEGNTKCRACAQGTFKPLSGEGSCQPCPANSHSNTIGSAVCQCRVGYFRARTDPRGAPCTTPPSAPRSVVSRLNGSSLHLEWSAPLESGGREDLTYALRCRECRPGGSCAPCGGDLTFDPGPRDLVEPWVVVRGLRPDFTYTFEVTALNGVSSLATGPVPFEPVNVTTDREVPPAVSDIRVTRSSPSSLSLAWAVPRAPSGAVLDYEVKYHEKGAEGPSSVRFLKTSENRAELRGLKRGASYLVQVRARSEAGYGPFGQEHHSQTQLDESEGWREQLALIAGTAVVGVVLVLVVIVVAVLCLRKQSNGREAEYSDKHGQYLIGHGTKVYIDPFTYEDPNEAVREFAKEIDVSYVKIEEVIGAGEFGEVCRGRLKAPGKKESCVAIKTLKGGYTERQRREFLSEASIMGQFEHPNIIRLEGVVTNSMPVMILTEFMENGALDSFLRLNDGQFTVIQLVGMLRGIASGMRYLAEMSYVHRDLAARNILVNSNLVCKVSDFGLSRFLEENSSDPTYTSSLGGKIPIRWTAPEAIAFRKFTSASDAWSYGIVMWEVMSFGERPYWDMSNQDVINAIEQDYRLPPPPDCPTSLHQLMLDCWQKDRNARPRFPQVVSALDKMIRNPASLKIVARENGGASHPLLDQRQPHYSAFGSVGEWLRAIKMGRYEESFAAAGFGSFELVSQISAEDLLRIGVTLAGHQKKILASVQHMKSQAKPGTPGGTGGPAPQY

[5] = molecular target: VEGFR2 (Homo sapiens, UniProt P35968); assay: as above; format: biochemical; set-up: purchased ReactionBiology; settings: VEGFR2; for % Enzyme Activity (relative to DMSO controls), Data 1: replicate Data 1; for % Enzyme Activity (relative to DMSO controls), Data 2: replicate Data 2;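 as to all read-outs here: VEGFR2 was one member of a ten-kinase screening panel testing marketed FDA-approved drugs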
[6] = WST-1 cytotoxicity assay on RPMI1788 cells (B-cell line); format: cell-based, human; settings: human, RPMI1788 cells (B-cell line), mean of 4 independent measures, read-out: Cytotoxicity, WST-1 RPMI 1788 IC 50 (µM) Mean
Experimental: Compounds were prepared as 10 mM stock solutions in dimethylsulfoxide (DMSO)and were tested at 50-10-1-0.1-0.01 and 0.001 μM in the 4 assays.
The human B cell line RPMI1788 (American Type Culture Collection, USA) and the human T cell line Jurkat (European Collection of Cell Cultures, ECACC, England) were maintained in RPMI1640 culture medium (BioWhittaker®, Lonza, Verviers, Belgium) containing 10% foetal calf serum (FCS, HyClone® Thermo Scientific, United Kingdom) and 5 μg/mL gentamicin sulphate (BioWhittaker®, Lonza, Verviers, Belgium) at 37°C and 5% CO2.
WST-1 assays on RPMI-1788 cells and Jurkat cells were performed as follows: 20 μL of test compound dilution were added to each well containing exponential growing cells and the plates were incubated for 48 h at 37°C, 5% CO2. Untreated cells and positive control (1% triton X-100, for the last 15 min) served as reference for maximum and minimum viability. At the end of incubation 100 μL of supernatant were removed and replaced by 10 μL of WST-1 solution (Cell Proliferation Reagent WST-1, Roche Applied Science).

[7] = WST-1 cytotoxicity assay on Jurkat cells (T-cell line); format: cell-based, human; settings: human, Jurkat cells (T-cell line), mean of 4 independent measures, read-out: Cytotoxicity, WST-1 Jurkat IC 50 (µM) Mean
[8] = test system: human CD19+ B cells; assay: B-cell assay: IgG production of ODN2006-stimulated primary B cells (AlphaLISA); format: cell-based; settings: Homo sapiens, B-cell, 168 h, read-out: B-cell IC50 (μM)
[9] = test system: human PBMCs (responder cells) with RPMI1788 stimulator cells; assay: Mixed Lymphocyte Reaction (MLR, T cell assay), 3H-thymidine incorporation; format: cell-based; settings: Homo sapiens, RPMI-1788; mean of 4 independent measures; read-out: T-cell efficacy, MLR IC 50 (µM) Mean
Experimental: In order to test the efficacy and selectivity of the hit compounds on B-cells, 4 assays were performed: B-cell assay, Mixed Lymphocyte Reaction (MLR), WST-1 assay on RPMI1788 cells (B-cell line) and cytotoxicity WST-1 assay on Jurkat cells (T-cell line). Compounds were prepared as 10 mM stock solutions in dimethylsulfoxide (DMSO)and were tested at 50-10-1-0.1-0.01 and 0.001 μM in the 4 assays.
Blood samples of healthy volunteers were collected at the Red Cross of Mechelen, Belgium. Each donor consents to the use of their blood for research purposes. […] The human B cell line RPMI1788 (American Type Culture Collection, USA) and the human T cell line Jurkat (European Collection of Cell Cultures, ECACC, England) were maintained in RPMI1640 culture medium (BioWhittaker®, Lonza, Verviers, Belgium) containing 10% foetal calf serum (FCS, HyClone® Thermo Scientific, United Kingdom) and 5 μg/mL gentamicin sulphate (BioWhittaker®, Lonza, Verviers, Belgium) at 37°C and 5% CO2.
MLR assay (T cell assay): Freshly isolated human PBMCs (responder cells) were resuspended in RPMI1640 medium containing 10% FCS and 5nμg/mL gentamicin sulphate. RPMI1788 cells (stimulator cells) were inactivated by treatment with mitomycin C (Kyowa®, Takeda Belgium, Brussels, Belgium) for 20 min at 37°C, washed and finally suspended in culture medium. An amount of 100 μL of each cell suspension was mixed with 20 μL of diluted compound. The mixed cells were cultured at 37°C for 6 days in 5% CO2. DNA synthesis was assayed by the addition of 10 μCi (methyl-3H) thymidine (Perkin Elmer, Zaventem, Belgium) per well during the last 18 h in culture. Thereafter, the cells were harvested on glass filter paper and the counts per minute determined in a liquid scintillation counter (TopCount, Perkin Elmer, Zaventem, Belgium).

T3 sequence (O00311 whole entry): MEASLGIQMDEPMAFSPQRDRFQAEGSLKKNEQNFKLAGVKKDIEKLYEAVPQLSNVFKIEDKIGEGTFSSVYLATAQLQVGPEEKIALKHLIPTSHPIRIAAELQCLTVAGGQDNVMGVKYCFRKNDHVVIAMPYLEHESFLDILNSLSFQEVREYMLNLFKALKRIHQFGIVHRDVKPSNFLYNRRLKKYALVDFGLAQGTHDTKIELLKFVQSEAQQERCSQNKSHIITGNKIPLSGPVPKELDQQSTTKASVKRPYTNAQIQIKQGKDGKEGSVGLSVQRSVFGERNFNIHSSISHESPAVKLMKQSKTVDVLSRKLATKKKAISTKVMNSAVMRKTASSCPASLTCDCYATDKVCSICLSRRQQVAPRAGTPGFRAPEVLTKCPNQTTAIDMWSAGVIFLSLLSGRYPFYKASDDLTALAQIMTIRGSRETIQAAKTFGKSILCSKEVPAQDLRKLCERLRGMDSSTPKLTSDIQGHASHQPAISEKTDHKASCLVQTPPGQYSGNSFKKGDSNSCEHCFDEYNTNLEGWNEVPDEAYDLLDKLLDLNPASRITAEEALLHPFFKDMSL
T3 sequence (Q9UBU7 whole entry partner): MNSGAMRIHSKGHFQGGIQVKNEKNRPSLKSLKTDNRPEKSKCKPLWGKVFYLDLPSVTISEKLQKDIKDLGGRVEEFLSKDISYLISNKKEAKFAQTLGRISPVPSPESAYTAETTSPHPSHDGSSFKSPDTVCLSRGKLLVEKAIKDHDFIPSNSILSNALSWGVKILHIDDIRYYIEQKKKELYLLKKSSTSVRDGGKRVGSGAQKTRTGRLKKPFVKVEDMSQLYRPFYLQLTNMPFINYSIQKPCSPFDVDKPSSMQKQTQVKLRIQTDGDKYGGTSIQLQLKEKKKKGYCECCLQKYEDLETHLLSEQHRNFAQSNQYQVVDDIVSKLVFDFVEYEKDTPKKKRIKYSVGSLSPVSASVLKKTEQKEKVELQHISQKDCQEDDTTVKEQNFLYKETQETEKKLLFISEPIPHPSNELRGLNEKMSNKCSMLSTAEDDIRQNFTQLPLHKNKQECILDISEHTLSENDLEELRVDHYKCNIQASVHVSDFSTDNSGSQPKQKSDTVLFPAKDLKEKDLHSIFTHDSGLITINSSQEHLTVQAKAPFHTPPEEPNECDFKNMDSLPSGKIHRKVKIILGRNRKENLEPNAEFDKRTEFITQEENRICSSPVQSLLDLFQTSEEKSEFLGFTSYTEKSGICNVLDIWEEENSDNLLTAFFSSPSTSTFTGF
T1 sequence (P53355 whole entry): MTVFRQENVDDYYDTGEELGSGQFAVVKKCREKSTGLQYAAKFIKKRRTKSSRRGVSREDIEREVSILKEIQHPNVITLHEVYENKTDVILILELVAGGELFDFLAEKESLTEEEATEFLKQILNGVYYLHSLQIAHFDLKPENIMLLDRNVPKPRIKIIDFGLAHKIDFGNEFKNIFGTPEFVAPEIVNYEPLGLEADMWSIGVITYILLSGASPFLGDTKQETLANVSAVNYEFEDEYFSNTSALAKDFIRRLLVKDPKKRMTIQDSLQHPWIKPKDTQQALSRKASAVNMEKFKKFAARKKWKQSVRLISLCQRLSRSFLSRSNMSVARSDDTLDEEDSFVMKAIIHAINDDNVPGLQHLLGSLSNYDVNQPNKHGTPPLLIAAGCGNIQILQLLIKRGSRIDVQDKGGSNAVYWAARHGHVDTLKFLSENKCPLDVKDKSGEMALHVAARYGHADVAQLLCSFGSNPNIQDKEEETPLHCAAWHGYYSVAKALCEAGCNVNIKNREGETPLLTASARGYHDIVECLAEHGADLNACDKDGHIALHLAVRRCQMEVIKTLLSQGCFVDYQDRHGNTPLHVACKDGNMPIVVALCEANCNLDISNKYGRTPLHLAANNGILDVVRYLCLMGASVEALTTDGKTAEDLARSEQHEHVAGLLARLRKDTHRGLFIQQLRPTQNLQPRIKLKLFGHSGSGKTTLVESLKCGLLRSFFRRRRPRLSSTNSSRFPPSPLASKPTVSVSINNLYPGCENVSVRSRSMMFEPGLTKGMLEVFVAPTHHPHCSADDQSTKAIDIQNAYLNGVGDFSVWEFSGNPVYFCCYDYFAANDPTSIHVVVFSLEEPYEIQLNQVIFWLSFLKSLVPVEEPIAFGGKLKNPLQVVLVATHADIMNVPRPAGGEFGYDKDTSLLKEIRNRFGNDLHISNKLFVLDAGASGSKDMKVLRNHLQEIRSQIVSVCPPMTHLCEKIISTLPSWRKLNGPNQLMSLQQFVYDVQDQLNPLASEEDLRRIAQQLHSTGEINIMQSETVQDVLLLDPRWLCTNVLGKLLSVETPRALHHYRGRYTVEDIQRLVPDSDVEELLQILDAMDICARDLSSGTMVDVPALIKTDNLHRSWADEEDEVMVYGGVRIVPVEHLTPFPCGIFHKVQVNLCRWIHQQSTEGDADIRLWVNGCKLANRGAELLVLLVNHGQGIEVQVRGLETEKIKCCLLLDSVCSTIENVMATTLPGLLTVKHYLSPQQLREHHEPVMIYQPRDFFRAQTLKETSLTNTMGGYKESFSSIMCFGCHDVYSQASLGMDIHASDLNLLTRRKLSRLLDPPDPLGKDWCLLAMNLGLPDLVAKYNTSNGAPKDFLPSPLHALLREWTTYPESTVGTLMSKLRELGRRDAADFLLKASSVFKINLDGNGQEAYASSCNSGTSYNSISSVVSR
VEGFR2, sequence (P35968 20-1356): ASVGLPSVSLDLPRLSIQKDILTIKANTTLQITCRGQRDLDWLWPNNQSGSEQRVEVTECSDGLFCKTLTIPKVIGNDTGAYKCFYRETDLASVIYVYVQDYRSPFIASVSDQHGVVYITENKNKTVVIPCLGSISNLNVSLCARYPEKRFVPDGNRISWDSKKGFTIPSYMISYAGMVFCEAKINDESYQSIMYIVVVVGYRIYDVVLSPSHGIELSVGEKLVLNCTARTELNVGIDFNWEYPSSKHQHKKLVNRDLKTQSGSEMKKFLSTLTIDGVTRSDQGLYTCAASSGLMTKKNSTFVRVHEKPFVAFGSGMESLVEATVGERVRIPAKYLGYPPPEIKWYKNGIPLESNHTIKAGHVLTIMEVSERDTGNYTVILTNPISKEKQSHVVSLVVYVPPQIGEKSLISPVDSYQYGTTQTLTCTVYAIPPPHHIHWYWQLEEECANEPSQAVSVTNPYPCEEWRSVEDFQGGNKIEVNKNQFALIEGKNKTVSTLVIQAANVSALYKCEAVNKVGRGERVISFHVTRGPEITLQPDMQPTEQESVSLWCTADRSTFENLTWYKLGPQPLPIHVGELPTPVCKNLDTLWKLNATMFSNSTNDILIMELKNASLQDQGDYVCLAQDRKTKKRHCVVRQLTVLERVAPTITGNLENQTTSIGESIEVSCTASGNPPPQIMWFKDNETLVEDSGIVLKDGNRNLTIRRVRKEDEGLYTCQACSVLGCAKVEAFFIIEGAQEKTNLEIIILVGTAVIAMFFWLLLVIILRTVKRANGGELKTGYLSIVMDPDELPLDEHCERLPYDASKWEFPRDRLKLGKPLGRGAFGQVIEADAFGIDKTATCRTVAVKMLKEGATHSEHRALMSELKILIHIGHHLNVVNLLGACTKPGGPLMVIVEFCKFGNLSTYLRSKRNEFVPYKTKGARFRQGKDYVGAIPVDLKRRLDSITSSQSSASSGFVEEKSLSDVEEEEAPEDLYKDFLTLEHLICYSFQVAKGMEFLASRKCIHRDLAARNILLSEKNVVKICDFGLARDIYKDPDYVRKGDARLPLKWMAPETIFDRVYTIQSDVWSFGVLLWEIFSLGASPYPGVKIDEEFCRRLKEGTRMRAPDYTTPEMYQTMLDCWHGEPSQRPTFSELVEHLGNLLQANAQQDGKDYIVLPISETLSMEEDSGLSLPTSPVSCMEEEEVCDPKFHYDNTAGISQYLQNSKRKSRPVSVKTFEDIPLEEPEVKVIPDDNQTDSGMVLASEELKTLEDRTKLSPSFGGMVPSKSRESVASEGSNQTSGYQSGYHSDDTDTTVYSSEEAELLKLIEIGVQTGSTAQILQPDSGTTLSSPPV
T2 sequence (P48730 whole entry): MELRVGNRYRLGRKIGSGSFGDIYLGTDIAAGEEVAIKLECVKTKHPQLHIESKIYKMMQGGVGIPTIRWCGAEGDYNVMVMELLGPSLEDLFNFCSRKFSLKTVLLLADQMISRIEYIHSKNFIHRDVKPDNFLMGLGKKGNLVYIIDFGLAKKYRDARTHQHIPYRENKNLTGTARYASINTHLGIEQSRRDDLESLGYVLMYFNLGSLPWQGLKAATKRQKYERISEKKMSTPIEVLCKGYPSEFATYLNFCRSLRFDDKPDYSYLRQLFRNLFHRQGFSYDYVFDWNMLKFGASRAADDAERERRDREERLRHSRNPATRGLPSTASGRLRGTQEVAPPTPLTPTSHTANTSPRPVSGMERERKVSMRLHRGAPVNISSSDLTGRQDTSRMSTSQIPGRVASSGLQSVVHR

% Enzyme Activity (relative to DMSO controls), Average ([1]; 1 uM): 109.45%
% Enzyme Activity (relative to DMSO controls), Average ([1]; 10 uM): 99.12%
% Enzyme Activity (relative to DMSO controls), Average [2]: 107.32%
% Enzyme Activity (relative to DMSO controls), Average ([3]; 1 uM): 70.23%
% Enzyme Activity (relative to DMSO controls), Average ([3]; 10 uM): 72.94%
% Enzyme Activity (relative to DMSO controls), Average ([4]; 1 uM): 98.03%
% Enzyme Activity (relative to DMSO controls), Average ([4]; 10 uM): 95.14%
% Enzyme Activity (relative to DMSO controls), Average ([5]; 1 uM): 102.81%
% Enzyme Activity (relative to DMSO controls), Average ([5]; 10 uM): 107.54%
SMILES: O=C(N[C@H](CO)[C@H](O)c1ccc([N+](=O)[O-])cc1)C(Cl)Cl [Chloramphenicol]

% Enzyme Activity (relative to DMSO controls), Average ([1]; 1 uM): 114.18%
% Enzyme Activity (relative to DMSO controls), Data 1 ([1]; 1 uM): 116.14%
% Enzyme Activity (relative to DMSO controls), Data 2 ([1]; 1 uM): 112.22%
% Enzyme Activity (relative to DMSO controls), Average ([1]; 10 uM): 104.62%
% Enzyme Activity (relative to DMSO controls), Data 1 ([1]; 10 uM): 110.58%
% Enzyme Activity (relative to DMSO controls), Data 2 ([1]; 10 uM): 98.66%
% Enzyme Activity (relative to DMSO controls), Average ([3]; 1 uM): 74.38%
% Enzyme Activity (relative to DMSO controls), Data 1 ([3]; 1 uM): 77.32%
% Enzyme Activity (relative to DMSO controls), Data 2 ([3]; 1 uM): 71.43%
% Enzyme Activity (relative to DMSO controls), Average ([3]; 10 uM): 75.76%
% Enzyme Activity (relative to DMSO controls), Data 1 ([3]; 10 uM): 77.92%
% Enzyme Activity (relative to DMSO controls), Data 2 ([3]; 10 uM): 73.60%
% Enzyme Activity (relative to DMSO controls), Average ([4]; 1 uM): 102.86%
% Enzyme Activity (relative to DMSO controls), Data 1 ([4]; 1 uM): 105.83%
% Enzyme Activity (relative to DMSO controls), Data 2 ([4]; 1 uM): 99.88%
% Enzyme Activity (relative to DMSO controls), Average ([4]; 10 uM): 91.65%
% Enzyme Activity (relative to DMSO controls), Data 1 ([4]; 10 uM): 91.79%
% Enzyme Activity (relative to DMSO controls), Data 2 ([4]; 10 uM): 91.51%
% Enzyme Activity (relative to DMSO controls), Average ([5]; 1 uM): 99.23%
% Enzyme Activity (relative to DMSO controls), Data 1 ([5]; 1 uM): 98.18%
% Enzyme Activity (relative to DMSO controls), Data 2 ([5]; 1 uM): 100.27%
% Enzyme Activity (relative to DMSO controls), Average ([5]; 10 uM): 102.28%
% Enzyme Activity (relative to DMSO controls), Data 1 ([5]; 10 uM): 99.63%
% Enzyme Activity (relative to DMSO controls), Data 2 ([5]; 10 uM): 104.92%
SMILES: C[C@]12CCC(=O)C=C1CC[C@@H]1[C@@H]2[C@@H](O)C[C@@]2(C)[C@H]1CC[C@]2(O)C(=O)CO [Hydrocortisone]

SMILES: C[C@@H]1CCN(C(=O)CC#N)C[C@@H]1N(C)c1ncnc2[nH]ccc12 [Tofacitinib]
IC50 at 48 h [6]: > 50 µM
IC50 at 48 h [7]: > 50 µM

SMILES: N[C@@H](Cc1cc(I)c(Oc2ccc(O)c(I)c2)c(I)c1)C(=O)O [Triiodothyronine]
IC50 [8]: 36.8 µM
IC50 [9]: 44.2 µM
IC50 at 48 h [7]: > 50 µM
